Test results published in US10479780B2, “Aminopyrazole derivatives” (Chugai Seiyaku Kabushiki Kaisha, priority 2015, dated 2019).

How the values were obtained:
Format in all cases: biochemical
[1] = biological target: T1, human Yes1 enzyme (Homo sapiens, UniProt P07947); experiment: Yes1 enzyme inhibitory activity (time-resolved fluorometry, biotinylated peptide phosphorylation); details: read-out: YES_IC50
T1 construct: made in house
Outline: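 Inhibition was expressed against a compound-free control to give IC50, using TR-FRET read-out (Eu-cryptate anti-pTyr antibody, streptavidin-XL665).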

[2] = biological target: T2, human Src enzyme (Homo sapiens, UniProt P12931); experiment: Src enzyme inhibitory activity (time-resolved fluorometry, biotinylated peptide phosphorylation); details: read-out: SRC_IC50
T2 construct: purchased Carna Biosciences, Inc. 08-173
Outline: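 Compounds were tested for blocking tyrosine phosphorylation of a biotinylated peptide substrate by recombinant human Src. Phosphorylated product was quantified by time-resolved fluorometry using europium cryptate and XL665 conjugates, and IC50 was calculated against the compound-free control.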

[3] = biological target: T3, human Lck enzyme (Homo sapiens, UniProt P06239); experiment: Lck enzyme inhibitory activity (time-resolved fluorometry, biotinylated peptide phosphorylation); details: read-out: LCK_IC50
T3 construct: purchased Carna Biosciences, Inc. 08-170
Outline: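 Readout pairs a europium cryptate-labelled anti-phosphotyrosine antibody with XL665-streptavidin, measured by time-resolved fluorescence. IC50 derived from percent inhibition against untreated controls.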

T3 sequence (P06239 whole entry): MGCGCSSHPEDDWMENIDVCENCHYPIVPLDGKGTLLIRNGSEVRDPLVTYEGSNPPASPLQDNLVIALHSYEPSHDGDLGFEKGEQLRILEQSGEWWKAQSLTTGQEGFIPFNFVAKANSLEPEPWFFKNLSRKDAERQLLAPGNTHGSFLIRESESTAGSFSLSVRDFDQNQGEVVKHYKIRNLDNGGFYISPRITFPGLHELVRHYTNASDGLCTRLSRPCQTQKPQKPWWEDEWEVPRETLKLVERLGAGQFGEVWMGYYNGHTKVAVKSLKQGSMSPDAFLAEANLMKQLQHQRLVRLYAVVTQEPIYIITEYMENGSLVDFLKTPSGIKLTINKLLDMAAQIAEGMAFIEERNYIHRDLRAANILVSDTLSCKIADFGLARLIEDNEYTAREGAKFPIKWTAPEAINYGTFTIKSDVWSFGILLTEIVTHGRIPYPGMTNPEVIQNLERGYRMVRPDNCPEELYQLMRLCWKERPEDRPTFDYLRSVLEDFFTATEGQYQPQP
T2 sequence (P12931 whole entry): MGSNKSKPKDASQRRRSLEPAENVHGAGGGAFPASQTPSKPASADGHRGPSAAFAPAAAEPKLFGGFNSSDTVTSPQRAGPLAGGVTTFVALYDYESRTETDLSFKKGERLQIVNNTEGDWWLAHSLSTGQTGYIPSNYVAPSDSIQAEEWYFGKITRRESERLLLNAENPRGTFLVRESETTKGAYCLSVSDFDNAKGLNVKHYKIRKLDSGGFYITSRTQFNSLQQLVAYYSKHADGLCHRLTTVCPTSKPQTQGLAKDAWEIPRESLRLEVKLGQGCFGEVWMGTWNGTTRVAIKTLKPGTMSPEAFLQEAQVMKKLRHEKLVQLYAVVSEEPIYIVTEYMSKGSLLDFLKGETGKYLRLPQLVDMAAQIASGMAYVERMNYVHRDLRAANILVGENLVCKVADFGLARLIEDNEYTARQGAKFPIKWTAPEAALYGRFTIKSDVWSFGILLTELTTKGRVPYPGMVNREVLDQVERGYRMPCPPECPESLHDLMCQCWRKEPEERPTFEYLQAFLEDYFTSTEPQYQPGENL
T1 sequence (P07947 whole entry): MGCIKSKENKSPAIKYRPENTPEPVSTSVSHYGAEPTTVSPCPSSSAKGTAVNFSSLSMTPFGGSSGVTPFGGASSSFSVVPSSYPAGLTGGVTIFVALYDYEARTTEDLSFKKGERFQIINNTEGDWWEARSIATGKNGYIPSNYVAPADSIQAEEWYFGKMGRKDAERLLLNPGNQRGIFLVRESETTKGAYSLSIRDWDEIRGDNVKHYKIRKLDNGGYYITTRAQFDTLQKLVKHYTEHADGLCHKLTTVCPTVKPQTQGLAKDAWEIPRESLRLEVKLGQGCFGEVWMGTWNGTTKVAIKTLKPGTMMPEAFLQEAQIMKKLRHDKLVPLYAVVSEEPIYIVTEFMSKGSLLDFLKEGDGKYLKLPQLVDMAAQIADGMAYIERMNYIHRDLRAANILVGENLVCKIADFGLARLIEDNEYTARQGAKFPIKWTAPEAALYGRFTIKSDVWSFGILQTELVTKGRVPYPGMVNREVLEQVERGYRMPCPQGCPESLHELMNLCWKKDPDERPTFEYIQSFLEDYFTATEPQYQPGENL

IC50 [1] [nM] | IC50 [2] [nM] | IC50 [3] [nM] | Structure (SMILES)
2 | 820 | 250 | Cc1cc(-n2ncc(C(=O)c3cc4cc(OCC(F)F)c(NS(C)(=O)=O)cc4[nH]3)c2N)ccc1Oc1ccccc1F [Example 5-1-166, N-[2-[5-amino-1-[4-(2-fluorophenoxy)-3-methylphenyl]pyrazole-4-carbonyl]-5-(2,2-difluoroethoxy)-1H-indol-6-yl] methanesulfonamide]
3.6 | 2000 | 370 | Cc1cc(-n2ncc(C(=O)c3cc4cc(OC(F)F)c(NS(C)(=O)=O)cc4[nH]3)c2N)ccc1Oc1ccccc1F [Example 5-1-167, N-[2-[5-amino-1-[4-(2-fluorophenoxy)-3-methylphenyl]pyrazole-4-carbonyl]-5-(difluoromethoxy)-1H-indol-6-yl] methanesulfonamide]
1.1 | 210 | 45 | Cc1cc(-n2ncc(C(=O)c3cc4cc(OCC(F)F)c(N5CCOC5=O)cc4[nH]3)c2N)ccc1Oc1ccccc1F [Example 5-1-168, 3-[2-[5-amino-1-[4-(2-fluorophenoxy)-3-methylphenyl]pyrazole-4-carbonyl]-5-(2,2-difluoroethoxy)-1H-indol-6-yl]-1,3-oxazolidin-2-one]
0.88 | 100 | 46 | Cc1cc(-n2ncc(C(=O)c3cc4cc(OCC(F)F)c(N5CCOCC5)cc4[nH]3)c2N)ccc1Oc1ccccc1F [Example 5-1-169, [5-amino-1-[4-(2-fluorophenoxy)-3-methylphenyl]pyrazol-4-yl]-[5-(2,2-difluoroethoxy)-6-morpholin-4-yl-1H-indol-2-yl] methanone]
1.3 | 490 | 89 | Cc1cc(-n2ncc(C(=O)c3cc4cc(OCC(F)F)c(N5C(=O)NC(C)(C)C5=O)cc4[nH]3)c2N)ccc1Oc1ccccc1F [Example 5-1-170, 3-[2-[5-amino-1-[4-(2-fluorophenoxy)-3-methylphenyl]pyrazole-4-carbonyl]-5-(2,2-difluoroethoxy)-1H-indol-6-yl]-5,5-dimethylimidazolidine-2,4-dione]
1.1 | 79 | 49 | Cc1cc(-n2ncc(C(=O)c3cc4cc(OCC(F)F)c(N5CCN(S(C)(=O)=O)CC5)cc4[nH]3)c2N)ccc1Oc1ccccc1F [Example 5-1-171, [5-amino-1-[4-(2-fluorophenoxy)-3-methylphenyl]pyrazol-4-yl]-[5-(2,2-difluoroethoxy)-6-(4-methylsulfonylpiperazin-1-yl)-1H-indol-2-yl]methanone]
0.9 | 170 | 18 | Cc1cc(-n2ncc(C(=O)c3cc4cc(OCC(F)F)c(N5CCC(N6CCOCC6)CC5)cc4[nH]3)c2N)ccc1Oc1ccccc1F [Example 5-1-172, [5-amino-1-[4-(2-fluorophenoxy)-3-methylphenyl]pyrazol-4-yl]-[5-(2,2-difluoroethoxy)-6-(4-morpholin-4-ylpiperidin-1-yl)-1H-indol-2-yl]methanone]
2.6 | 340 | 100 | Cc1cc(-n2ncc(C(=O)c3cc4cc(OC(F)F)c(N5CCOCC5)cc4[nH]3)c2N)ccc1Oc1ccccc1F [Example 5-1-173, [5-amino-1-[4-(2-fluorophenoxy)-3-methylphenyl]pyrazol-4-yl]-[5-(difluoromethoxy)-6-morpholin-4-yl-1H-indol-2-yl]methanone]
0.56 | 46 | 4.5 | Cc1cc(-n2ncc(C(=O)c3cc4cc(OC5CCN(C(C)C)CC5)c(N5CCOCC5)cc4[nH]3)c2N)ccc1Oc1ccccc1F [Example 5-1-174, (5-amino-1-(4-(2-fluorophenoxy)-3-methylphenyl)-1H-pyrazol-4-yl)(5-((1-isopropylpiperidin-4-yl)oxy)-6-morpholino-1H-indol-2-yl)methanone]
